Assay results taken from US7834009B2, “4-hydroxy-5,6-dihydro-1H-pyridin-2-one compounds” (Anadys Pharmaceuticals, Inc., priority 2007, dated 2010).

molecular target: HCV NS5B polymerase (Hepatitis C virus genotype 1b, UniProt P26663); assay: biochemical; conditions: 20 nM enzyme, 0.6 μM GTP, 250 nM 5′biotinylated oligo (rG13)/poly rC, 75 min at 28° C.
Description: Compounds were tested for HCV polymerase inhibition. Assays were performed in a 96-well streptavidin-coated FlashPlate using 20 nM enzyme, 0.5 μCi of [α-^33P]GTP, 0.6 μM GTP, and 250 nM 5′biotinylated oligo (rG13)/poly rC in 20 mM Tris-HCl, pH 7.5, 5 mM MgCl2, 5 mM dithiothreitol, 0.1 g/L bovine serum albumin, and 100 U/mL RNAse inhibitor. The reaction was stopped by aspiration after 75 min at 28° C. and the plate was washed several times. After washing and drying the plate, incorporated radioactivity was counted using a Microbeta scintillation counter. IC50 values were calculated relative to the uninhibited control and inhibition data were fitted to a 4-parameter IC50 equation.

HCV NS5B polymerase, sequence (P26663 2420-3010): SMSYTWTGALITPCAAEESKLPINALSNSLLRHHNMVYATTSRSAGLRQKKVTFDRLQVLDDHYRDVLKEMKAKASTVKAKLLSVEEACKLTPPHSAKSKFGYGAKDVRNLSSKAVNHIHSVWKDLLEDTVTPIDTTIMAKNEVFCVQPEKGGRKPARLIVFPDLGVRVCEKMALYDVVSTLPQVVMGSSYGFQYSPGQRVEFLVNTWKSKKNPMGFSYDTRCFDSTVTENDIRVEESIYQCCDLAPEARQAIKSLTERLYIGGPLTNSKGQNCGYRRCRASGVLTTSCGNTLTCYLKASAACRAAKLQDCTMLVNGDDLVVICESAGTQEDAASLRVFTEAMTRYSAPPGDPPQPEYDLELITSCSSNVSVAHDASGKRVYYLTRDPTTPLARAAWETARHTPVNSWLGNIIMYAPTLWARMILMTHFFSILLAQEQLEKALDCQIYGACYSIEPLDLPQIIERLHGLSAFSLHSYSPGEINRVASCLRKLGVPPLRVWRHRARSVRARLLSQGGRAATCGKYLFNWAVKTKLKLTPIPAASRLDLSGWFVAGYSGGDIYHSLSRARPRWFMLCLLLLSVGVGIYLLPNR

Row | SMILES | IC50 [µM]
1 | CC(C)CCC1(CO)CN(C2CCCC2)C(=O)C(C2=NS(=O)(=O)c3cc(NS(C)(=O)=O)ccc3N2)=C1O (centres unmarked) [Example 54, N-{3-[1-Cyclopentyl-4-hydroxy-5-hydroxymethyl-5-(3-methyl-butyl)-2-oxo-1,2,5,6-tetrahydro-pyridin-3-yl]-1,1-dioxo-1,4-dihydro-1λ^6-benzo[1,2,4]thiadiazin-7-yl}-methanesulfonamide] | < 0.1
2 | CC(C)=CCC1CN(C2CCCC2)C(=O)C(C2=NS(=O)(=O)c3cc(NS(C)(=O)=O)ccc3N2)=C1O (centres unmarked) [Example 22, N-{3-[1-Cyclopentyl-4-hydroxy-5-(3-methyl-but-2-enyl)-2-oxo-1,2,5,6-tetrahydro-pyridin-3-yl]-1,1-dioxo-1,4-dihydro-1λ^6-benzo[1,2,4]thiadiazin-7-yl}-methanesulfonamide] | < 0.1
3 | CC(C)CC1CC(O)=C(C2=NS(=O)(=O)c3cc(NS(C)(=O)=O)ccc3N2)C(=O)N1C1CCCC1 (centres unmarked) [Example 56, N-[3-(1-Cyclopentyl-4-hydroxy-6-isobutyl-2-oxo-1,2,5,6-tetrahydro-pyridin-3-yl)-1,1-dioxo-1,4-dihydro-1λ^6-benzo[1,2,4]thiadiazin-7-yl]-methanesulfonamide] | 1 to 4
4 | CC#CCC1(C)CN(C2CCCC2)C(=O)C(C2=NS(=O)(=O)c3cc(NS(C)(=O)=O)ccc3N2)=C1O (centres unmarked) [Example 26, N-[3-(5-But-2-ynyl-1-cyclopentyl-4-hydroxy-5-methyl-2-oxo-1,2,5,6-tetrahydro-pyridin-3-yl)-1,1-dioxo-1,4-dihydro-1λ^6-benzo[1,2,4]thiadiazin-7-yl]-methanesulfonamide] | 0.1 to 1
5 | CC1(c2ccccc2)CN(C2CCC2)C(=O)C(C2=NS(=O)(=O)c3cc(NS(C)(=O)=O)ccc3N2)=C1O (centres unmarked) [Example 32, N-[3-(1-Cyclobutyl-4-hydroxy-5-methyl-2-oxo-5-phenyl-1,2,5,6-tetrahydro-pyridin-3-yl)-1,1-dioxo-1,4-dihydro-1λ^6-benzo[1,2,4]thiadiazin-7-yl]-methanesulfonamide] | 1 to 4
6 | CC(C)[C@H]1CC(O)=C(C2=NS(=O)(=O)c3cc(NS(C)(=O)=O)ccc3N2)C(=O)N1Cc1ccc(F)c(Cl)c1 [Example 55, N-{3-[1-(3-Chloro-4-fluoro-benzyl)-4-hydroxy-6(R)-isopropyl-2-oxo-1,2,5,6-tetrahydro-pyridin-3-yl]-1,1-dioxo-1,4-dihydro-1λ^6-benzo[1,2,4]thiadiazin-7-yl}-methanesulfonamide] | < 0.1
7 | CC(C)CCC1(C)C(O)=C(C2=NS(=O)(=O)c3cc(NS(C)(=O)=O)ccc3N2)C(=O)N2CCCC21 (centres unmarked) [Example 5, N-{3-[7-Hydroxy-8-methyl-8-(3-methyl-butyl)-5-oxo-1,2,3,5,8,8a-hexahydro-indolizin-6-yl]-1,1-dioxo-1,4-dihydro-1λ6-benzo[1,2,4]thiadiazin-7-yl}-methanesulfonamide] | < 0.1
8 | CC(C)CCC1CC(O)=C(C2=NS(=O)(=O)c3cc(NS(C)(=O)=O)ccc3N2)C(=O)N1C1CCCC1 (centres unmarked) [Example 53, N-{3-[1-Cyclopentyl-4-hydroxy-6-(3-methyl-butyl)-2-oxo-1,2,5,6-tetrahydro-pyridin-3-yl]-1,1-dioxo-1,4-dihydro-1λ^6-benzo[1,2,4]thiadiazin-7-yl}-methanesulfonamide] | 1 to 4
9 | CC1(C)CN(C2CCCC2)C(=O)C(C2=NS(=O)(=O)c3cc(NS(C)(=O)=O)ccc3N2)=C1O [Example 18, N-[3-(1-Cyclopentyl-4-hydroxy-5,5-dimethyl-2-oxo-1,2,5,6-tetrahydro-pyridin-3-yl)-1,1-dioxo-1,4-dihydro-1λ^6-benzo[1,2,4]thiadiazin-7-yl]-methanesulfonamide] | 1 to 4
10 | CC(C)CCN1C(=O)C(C2=NS(=O)(=O)c3cc(NS(C)(=O)=O)ccc3N2)=C(O)C[C@@H]1c1ccccc1 [Example 49, N-{3-[4-Hydroxy-1-(3-methyl-butyl)-2-oxo-6(R)-phenyl-1,2,5,6-tetrahydro-pyridin-3-yl]-1,1-dioxo-1,4-dihydro-1λ^6-benzo[1,2,4]thiadiazin-7-yl}-methanesulfonamide] | 0.1 to 1
11 | CC(C)CCC1(C)CN(N2CCCC2)C(=O)C(C2=NS(=O)(=O)c3cc(NS(C)(=O)=O)ccc3N2)=C1O (centres unmarked) [Example 7, N-{3-[4-Hydroxy-5-methyl-5-(3-methyl-butyl)-2-oxo-1-pyrrolidin-1-yl-1,2,5,6-tetrahydro-pyridin-3-yl]-1,1-dioxo-1,4-dihydro-1λ^6-benzo[1,2,4]thiadiazin-7-yl}-methanesulfonamide] | < 0.1
12 | CC(C)CCC1(COCc2ccccc2)CN(C2CCCC2)C(=O)C(C2=NS(=O)(=O)c3cc(NS(C)(=O)=O)ccc3N2)=C1O (centres unmarked) [Example 58, N-{3-[5-Benzyloxymethyl-1-cyclopentyl-4-hydroxy-5-(3-methyl-butyl)-2-oxo-1,2,5,6-tetrahydro-pyridin-3-yl]-1,1-dioxo-1,4-dihydro-1λ^6-benzo[1,2,4]thiadiazin-7-yl}-methanesulfonamide] | 1 to 4
13 | CC(C)(C)CCN1CC(C)(C2CCCC2)C(O)=C(C2=NS(=O)(=O)c3cc(NS(C)(=O)=O)ccc3N2)C1=O (centres unmarked) [Example 30, N-{3-[5-Cyclopentyl-1-(3,3-dimethyl-butyl)-4-hydroxy-5-methyl-2-oxo-1,2,5,6-tetrahydro-pyridin-3-yl]-1,1-dioxo-1,4-dihydro-1λ^6-benzo[1,2,4]thiadiazin-7-yl}-methanesulfonamide] | < 0.1
14 | CC(C)CCN1CC(C)(C)C(O)=C(C2=NS(=O)(=O)c3cc(NS(C)(=O)=O)ccc3N2)C1=O [Example 11, N-{3-[4-Hydroxy-5,5-dimethyl-1-(3-methyl-butyl)-2-oxo-1,2,5,6-tetrahydro-pyridin-3-yl]-1,1-dioxo-1,4-dihydro-1λ^6-benzo[1,2,4]thiadiazin-7-yl}-methanesulfonamide] | 0.1 to 1
